# Test results published in ChEMBL document CHEMBL6109128, “Copper-KRAS-COX2 Axis: A Therapeutic Vulnerability in Pancreatic Cancer” (J Med Chem, 2025).
# pIC50: −log10 of the molar value. Activity calls are given as the source filed them. The calls are words filed in the database; no cut-off is given here.
# Columns and labels:
# MIA PaCa-2 [1] = test: Cytotoxicity against human MIA PaCa-2 cells by MTT assay; type: functional, cell-based
# [2] = Metabolic stability in human liver microsome assessed as half life measured up to 60 mins by LC-MS/MS analysis; type: ADME; settings: liver microsomes
# BXPC-3 [3] = test: Cytotoxicity against human BXPC-3 cells harboring wild type KRAS; type: functional, cell-based
# Panc02 [4] = test: Cytotoxicity against mouse Panc02 cells harboring wild type KRAS; type: functional, cell-based
# CT26 = test: Synergistic antiproliferative activity against mouse CT26 cells at 0.01 to 3 uM in presence of MRTX1133; type: functional, cell-based; settings: dose 0.01-3 µM
# Panc02 [5] = test: Synergistic antiproliferative activity against mouse Panc02 cells harboring wild type KRAS at 0.01 to 3 uM in presence of MRTX1133; type: functional, cell-based; settings: dose 0.01-3 µM
# MIA PaCa-2 [6] = test: Synergistic antiproliferative activity against human MIA PaCa-2 cells assessed as inhibition of colony formation at up to 0.5 uM in presence of CuSO4; type: functional, cell-based
# MIA PaCa-2 [7] = test: Synergistic antiproliferative activity against human MIA PaCa-2 cells assessed as inhibition of colony formation at up to 0.5 uM in presence of TTM; type: functional, cell-based
# HCT-116 [8] = test: Synergistic antiproliferative activity against human HCT-116 cells assessed as inhibition of colony formation at up to 10 uM in presence of TTM; type: functional, cell-based
# MIA PaCa-2 [9] = test: Synergistic antiproliferative activity against human MIA PaCa-2 cells assessed as inhibition of colony formation at up to 1 uM in presence of FeCl3; type: functional, cell-based
# HCT-116 [10] = test: Synergistic antiproliferative activity against human HCT-116 cells assessed as inhibition of colony formation at up to 1 uM incubated for 6 days in presence of AZD6738; type: functional, cell-based; settings: time 6.0 day
# HCT-116 [11] = test: Synergistic antiproliferative activity against human HCT-116 cells assessed as inhibition of colony formation at up to 1 uM incubated for 6 days in presence of LY2603618; type: functional, cell-based; settings: time 6.0 day
# HCT-116 [12] = test: Synergistic antiproliferative activity against human HCT-116 cells assessed as inhibition of colony formation at up to 1 uM incubated for 6 days in presence of napabucasin; type: functional, cell-based; settings: time 6.0 day
# HCT-116 [13] = test: Synergistic antiproliferative activity against human HCT-116 cells assessed as inhibition of colony formation at up to 1 uM incubated for 6 days in presence of JQ-1; type: functional, cell-based; settings: time 6.0 day
# HCT-116 [14] = test: Synergistic antiproliferative activity against human HCT-116 cells assessed as inhibition of colony formation at up to 1 uM incubated for 6 days in presence of CC-115; type: functional, cell-based; settings: time 6.0 day
# HCT-116 [15] = test: Synergistic antiproliferative activity against human HCT-116 cells assessed as inhibition of colony formation at up to 1 uM incubated for 6 days in presence of celecoxib; type: functional, cell-based; settings: time 6.0 day
# BXPC-3 [16] = test: Synergistic antiproliferative activity against human BXPC-3 cells assessed as inhibition of colony formation at up to 1 uM incubated for 6 days in presence of celecoxib; type: functional, cell-based; settings: time 6.0 day
# KPC2 = test: Synergistic antiproliferative activity against mouse KPC2 cells assessed as inhibition of colony formation at up to 1 uM incubated for 6 days in presence of celecoxib; type: functional, cell-based; settings: time 6.0 day
# Panc02 [17] = test: Synergistic antiproliferative activity against mouse Panc02 cells assessed as inhibition of colony formation at up to 1 uM incubated for 6 days in presence of celecoxib; type: functional, cell-based; settings: time 6.0 day
# HCT-116 [18] = test: Synergistic antiproliferative activity against human HCT-116 cells assessed as inhibition of colony formation at up to 1 uM incubated for 6 days in presence of lumi-racoxib; type: functional, cell-based; settings: time 6.0 day
# MIA PaCa-2 [19] = test: Synergistic antiproliferative activity against human MIA PaCa-2 cells assessed as inhibition of colony formation at up to 1 uM incubated for 6 days in presence of valdecoxib; type: functional, cell-based; settings: time 6.0 day
# MIA PaCa-2 [20] = test: Synergistic antiproliferative activity against human MIA PaCa-2 cells assessed as inhibition of colony formation at up to 1 uM incubated for 6 days in presence of lumira-coxib; type: functional, cell-based; settings: time 6.0 day
# PANC-1 [21] = test: Synergistic antiproliferative activity against human PANC-1 cells assessed as inhibition of colony formation at up to 1 uM incubated for 6 days in presence of valdecoxib; type: functional, cell-based; settings: time 6.0 day
# MIA PaCa-2 [22] = test: Induction of apoptosis in human MIA PaCa-2 cells assessed as increase in clonogenic survival up to 0.5 uM incubated for 6 days in presence of Z-VAD-FMK by crystal violet staining based analysis; type: functional, cell-based; settings: time 6.0 day
# MIA PaCa-2 [23] = test: Induction of apoptosis in human MIA PaCa-2 cells assessed as increase in clonogenic survival up to 0.5 uM incubated for 6 days in presence of necrostatin-1 by crystal violet staining based analysis; type: functional, cell-based; settings: time 6.0 day
# HCT-116 [24] = test: Induction of apoptosis in human HCT-116 cells assessed as increase in clonogenic survival up to 1 uM incubated for 6 days in presence of necrostatin-1 by crystal violet staining based analysis; type: functional, cell-based; settings: time 6.0 day
# PANC-1 [25] = test: Antiproliferative activity against human PANC-1 cells assessed as cell death incubated for 6 hrs in presence of NS3694; type: functional, cell-based
# MIA PaCa-2 [26] = test: Induction of apoptosis in human MIA PaCa-2 cells assessed as upregulation of caspase 3 level at 10 uM measured for 48 hrs by Western blot analysis; type: functional, cell-based
# MIA PaCa-2 [27] = test: Induction of necroptosis in human MIA PaCa-2 cells assessed as increase in p-RIP3 level at 10 uM incubated for 1 hr by Western blot analysis; type: functional, cell-based
# HCT-116 [28] = test: Induction of necroptosis in human HCT-116 cells assessed as increase in p-RIP3 level at 10 uM incubated for 1 hr by Western blot analysis; type: functional, cell-based
# HCT-116 [29] = test: Induction of ferroptosis in human HCT-116 cells at up to 1 uM in presence of FIN56; type: functional, cell-based
# HCT-116 [30] = test: Induction of ferroptosis in human HCT-116 cells at up to 1 uM in presence of erastin; type: functional, cell-based
# MIA PaCa-2 [31] = test: Induction of ferroptosis in human MIA PaCa-2 cells assessed as cell death at up to 1 uM in presence of ferrostatin-1; type: functional, cell-based
# HCT-116 [32] = test: Induction of ferroptosis in human HCT-116 cells assessed as cell death at up to 1 uM in presence of […]; type: functional, cell-based
# HCT-116 [33] = test: Induction of autophagy in human HCT-116 cells assessed as cell death at up to 1 uM incubated for 6 days in presence of chloroquine; type: functional, cell-based; settings: time 6.0 day
# [34] = AUC in CD-1 mouse at 15 mg/kg, iv measured up to 24 hrs by LC-MS/MS analysis; type: ADME, organism-based; settings: in vivo
# [35] = AUC in CD-1 mouse at 30 mg/kg, po measured up to 24 hrs by LC-MS/MS analysis; type: ADME, organism-based; settings: in vivo
# [36] = AUC (0 to infinity) in CD-1 mouse at 15 mg/kg, iv measured up to 24 hrs by LC-MS/MS analysis; type: ADME, organism-based; settings: in vivo
# [37] = Volume of distribution at steady state in CD-1 mouse at 15 mg/kg, iv measured up to 24 hrs by LC-MS/MS analysis; type: ADME, organism-based; settings: in vivo, read-out: Vdss
# [38] = Toxicity in C57BL/6 mouse assessed as body weight loss at 20 to 40 mg/kg, ip administered for 28 days; type: organism-based; settings: in vivo, 672 h, dose 20-40 mg/kg, time 28 day
SMILES,pIC50 (MIA PaCa-2 [1]),half-life [2],Activity (BXPC-3 [3]),Activity (Panc02 [4]),Activity (CT26),Activity (Panc02 [5]),Activity (MIA PaCa-2 [6]),Activity (MIA PaCa-2 [7]),Activity (HCT-116 [8]),Activity (MIA PaCa-2 [9]),Activity (HCT-116 [10]),Activity (HCT-116 [11]),Activity (HCT-116 [12]),Activity (HCT-116 [13]),Activity (HCT-116 [14]),Activity (HCT-116 [15]),Activity (BXPC-3 [16]),Activity (KPC2),Activity (Panc02 [17]),Activity (HCT-116 [18]),other results
N[C@@H]1[C@H]2CN(c3cnc(C(=O)Nc4cc(F)cc5cccnc45)cn3)C[C@@H]12,6.22,> 1 h,inactive,inactive,Active,inactive,Active,Active,Active,Active,Active,Active,Active,Active,Active,Active,Active,Active,Active,Active,Activity (MIA PaCa-2 [19]): Active; Activity (MIA PaCa-2 [20]): Active; Activity (PANC-1 [21]): Active; Activity (MIA PaCa-2 [22]): Active; Activity (MIA PaCa-2 [23]): Active; Activity (HCT-116 [24]): Active; Activity (PANC-1 [25]): Active; Activity (MIA PaCa-2 [26]): Active; Activity (MIA PaCa-2 [27]): Active; Activity (HCT-116 [28]): Active; Activity (HCT-116 [29]): Active; Activity (HCT-116 [30]): Active; Activity (MIA PaCa-2 [31]): inactive; Activity (HCT-116 [32]): inactive; Activity (HCT-116 [33]): Active; AUC at 24 h [34]: 3420 ng·h/mL; AUC at 24 h [35]: 3780 ng·h/mL; AUC(0-inf) [36]: 3450 ng·h/mL; Vd [37]: 14.6 L/kg; Activity [38]: Non-toxic
C[C@@H]1OCC2(CCN(c3cnc(C(=O)Nc4cc(F)cc5cccnc45)cn3)CC2)[C@@H]1N,5.72,> 1 h,inactive,inactive,Active,inactive,Active,Active,Active,Active,Active,Active,Active,Active,Active,Active,Active,Active,Active,Active,Activity (MIA PaCa-2 [19]): Active; Activity (MIA PaCa-2 [20]): Active; Activity (PANC-1 [21]): Active; Activity (MIA PaCa-2 [22]): Active; Activity (MIA PaCa-2 [23]): Active; Activity (HCT-116 [24]): Active; Activity (PANC-1 [25]): Active; Activity (MIA PaCa-2 [26]): Active; Activity (MIA PaCa-2 [27]): Active; Activity (HCT-116 [28]): Active; Activity (HCT-116 [29]): Active; Activity (HCT-116 [30]): Active; Activity (MIA PaCa-2 [31]): inactive; Activity (HCT-116 [32]): inactive; Activity (HCT-116 [33]): Active; AUC at 24 h [34]: 6010 ng·h/mL; AUC at 24 h [35]: 6640 ng·h/mL; AUC(0-inf) [36]: 6090 ng·h/mL; Vd [37]: 7.1 L/kg; Activity [38]: Non-toxic
